IC50 and Ki data for 14 compounds are collected here from patent publication US8901313B2, “6,5-heterocyclic propargylic alcohol compounds and uses therefor” (Genentech, Inc., priority 2011, dated 2014).

Assay [1] concerns NF-kB signaling through NIK in human embryonic kidney 293 cells. Put plainly: 293-NIK NF-kB-Luciferase reporter assay. It counts as cell-based. The following applies: HEK293, 293 cells with tetracycline-inducible NIK, 1 ug/mL doxycycline, 24 hours, read-out: inhibitory value (IC50) for 293-NIK NF-kB-Luciferase activity. The source says:
(§1) (1) The first assay was used to profile whether a test compound can inhibit the NF-kB signally through NIK inhibition without affecting cell viability. In this assay, human embryonic kidney 293 cells was stably transfected with a tetracycline-inducible NIK DNA construct containing a cytomegalovirus promoter plus two reporter DNA constructs. One reporter encoded firefly luciferase under the control of three repeats of an NF-kB response element from the ELAM-1 gene and reflects the level of NIK activity in the cells, whereas the other reporter constitutively expressed Renilla luciferase under the control of the herpes simplex virus thymidine kinase promoter and served as a general measure of cell viability. Cells were incubated with different concentrations of compounds (0.2% DMSO final) in medium containing 1 ug/mL doxycycline and 10% tet-system approved fetal bovine serum (Clontech) for 24 hours, after which the reporters' signals were detected using the Dual Glo luciferase detection system (Promega) according to the vendor's protocol. The compounds listed in Table 1 have the corresponding inhibitory value (IC50 in micromolar) for 293-NIK NF-kB-Luciferase activity (values for compounds are presented in the same order as found in Table 1): na, 0.059, na, na, na, 0.105, 0.027, na, 20, 1.2, na, 1.8, 0.0231, 0.879, 0.0361, 0.582, na, 0.142, na, 0.403, 0.059, 0.0331, na, na, 0.0573, 1.5, na, na, 0.0722, na, na, 0.589, 12.7, 3.7, 14.9, na, 0.707, 1, 0.0311, 0.332, 0.309, 0.0142, 0.051, 2.8, 0.129, na, na, 1.5, na, na, na, 1.3, 0.062, 20, 0.31, 0.104, 0.091, 0.037, 0.085, 0.279, na, 0.305, 0.064, 0.332, 0.133, 0.168, 0.217, 0.553, na and na.
A general note: Reporter assays use an easily measured gene product as a stand-in for the process of interest.

The test system of assay [2] is human embryonic kidney 293 cells. Briefly: 293-NIK TK Renilla Luciferase reporter (general measure of cell viability). The note with it: HEK293, 293 cells, constitutive Renilla luciferase, 24 hours, read-out: inhibitory value (IC50) for 293-NIK TK Renilla Luciferase activity. It counts as cell-based.
Description: as §1
The compounds in listed in Table 1 have the corresponding inhibitory value (IC50 in micromolar) for 293-NIK TK Renilla Luciferase activity: (values for compounds are presented in the same order as found in Table 1): 6.4, 3.6, 20, na, 1.6, 9.3, 18.5, na, na, 2.6, na, na, na, na, na, na, na, na, na, na, na, na, na, na, na, na, na, na, na, na, na, na, na, na, na, na, na, na, na, na, na, na, na, na, na, na, na, >20, na, na, na, 20, >20, 17, 1.3, 15.6, 0.967, 2.7, 11.2, 5.1, na, 20, 20, 20, 20, 20, 17.6, 20, na and na.

Assay [3] deals with T1, nuclear factor-kappa B (NF-kB)-inducing kinase (NIK) (Homo sapiens, UniProt Q99558).
T1 construct: made in house; host or cells: baculovirus-infected insect cells
Put plainly: NIK Enzyme Inhibition Assay (Transcreener ADP assay). It counts as biochemical. The following applies: purified NIK 0.2-1 nM, 10 uM ATP, fluorescence polarization, Morrison's quadratic equation; read-out: inhibitory value (Ki) for NIK. A general note: Polarisation of emitted light reports the rotation of a fluorescent probe.

Assay [4] deals with REL-A (p65) nuclear translocation in HeLa cells. Put plainly: NIK RelA Translocation Assay (classical NF-kB signaling). The assay is classed as cell-based. The following applies: Homo sapiens; HeLa cells, compounds 4.5 hours, 10 ng/mL TNF-α 30 minutes; read-out: inhibitory value (IC50) for NIK RelA Translocation Assay. The method, then:
(§2) (2) A second set of cell assay was used to define the selectivity of NIK inhibitors toward inhibition of classical vs. non-classical NF-kB signaling and rely on quantification of the nuclear translocation of p52 (NF-kB2) and REL-A (p65) using high content cellular imaging. For the p52 (non-classical NF-kB signaling) nuclear translocation assay, HeLa cells were treated with different concentrations of compounds (0.2% DMSO final) in medium containing 10% fetal bovine serum and then stimulated with 100 ng/mL of an anti-lymphotoxin beta receptor antibody (R&D Systems) for 5 hours. In the REL-A nuclear translocation assay, HeLa cells were incubated with compounds (0.2% DMSO final) for 4.5 hours in medium containing 10% fetal bovine serum before stimulating them with 10 ng/mL tumor necrosis factor (TNF)-α (R&D Systems) for 30 minutes. Cells were fixed with 4% paraformaldehyde, permeabilized by adding 0.1% Triton X-100 in phosphate buffered saline, and then incubated with either 2 ug/mL anti-p52 antibody (Millipore) or 400 ng/mL anti-REL-A (p65) antibody (Santa Cruz Biotechnology). Finally, the cells were incubated with an Alexa488-labeled secondary antibody (Invitrogen) and DRAQ5 DNA stain (Biostatus). Imaging was carried out using an Opera reader (Perkin Elmer) and data are analyzed with the aid of Acapella software (Perkin Elmer). The p52 or REL-A translocation into the nucleus was quantified by the ratio of the nuclear to cytoplasmic signal intensity. The concentration of inhibitor required for 50% inhibition (IC50 values) in these cell assays were derived from the plots of signal vs. inhibitor concentration. The compounds in listed in Table 1 have the corresponding inhibitory value (IC50 in micromolar) for NIK p52 Translocation Assay (values for compounds are presented in the same order as found in Table 1, and “na” means the data for this assay is to be determined): 0.326, 0.33, na, na, na, 0.218, 0.07, na, na, na, 0.129, 7.6, 0.077, 3.4, na, 0.518, na, 0.059, 0.514, 0.127, na, na, 0.010, na, na, 0.313, 0.275, na, 0.0727, na, na, na, na, na, na, 0.194, na, 6.4, 0.22, 0.346, na, na, na and na, na, na, na, na, na, 0.447, na, 0.089, 0.479, 0.489, 0.243, 0.747, 1, na, 1.9, 0.552, 2.1, na. na, na, na, na and na.
The compounds in listed in Table 1 has the corresponding inhibitory value (IC50 in micromolar) for NIK RelA Translocation Assay (values for compounds are presented in the same order as found in Table 1): 0.326, 0.33, na, na, na, 0.218, 0.07, na, na, na, na, na, 0.129, 7.6, 0.077, 3.4, na, 0.518, na, 0.059, 0.514, 0.127, na, na, 0.010, na, na, 0.313, 0.275, na, na, 0.0727, na, na, na, na, na, na, 0.194, na, 6.4, 0.22, 0.346, na, na, na, na, na, na, na, na, na, 0.447, na, 0.089, 0.479, 0.489, 0.243, 0.747, 1, na, 1.9, 0.552, 2.1, na, na, na, na, na and na.

Assay [5] concerns p52 (NF-kB2) nuclear translocation in HeLa cells. Briefly: NIK p52 Translocation Assay (non-classical NF-kB signaling). It counts as cell-based. The note with it: Homo sapiens; HeLa cells, 100 ng/mL anti-lymphotoxin beta receptor antibody, 5 hours; read-out: inhibitory value (IC50) for NIK p52 Translocation Assay. The procedure: as §2

T1 sequence (Q99558 whole entry): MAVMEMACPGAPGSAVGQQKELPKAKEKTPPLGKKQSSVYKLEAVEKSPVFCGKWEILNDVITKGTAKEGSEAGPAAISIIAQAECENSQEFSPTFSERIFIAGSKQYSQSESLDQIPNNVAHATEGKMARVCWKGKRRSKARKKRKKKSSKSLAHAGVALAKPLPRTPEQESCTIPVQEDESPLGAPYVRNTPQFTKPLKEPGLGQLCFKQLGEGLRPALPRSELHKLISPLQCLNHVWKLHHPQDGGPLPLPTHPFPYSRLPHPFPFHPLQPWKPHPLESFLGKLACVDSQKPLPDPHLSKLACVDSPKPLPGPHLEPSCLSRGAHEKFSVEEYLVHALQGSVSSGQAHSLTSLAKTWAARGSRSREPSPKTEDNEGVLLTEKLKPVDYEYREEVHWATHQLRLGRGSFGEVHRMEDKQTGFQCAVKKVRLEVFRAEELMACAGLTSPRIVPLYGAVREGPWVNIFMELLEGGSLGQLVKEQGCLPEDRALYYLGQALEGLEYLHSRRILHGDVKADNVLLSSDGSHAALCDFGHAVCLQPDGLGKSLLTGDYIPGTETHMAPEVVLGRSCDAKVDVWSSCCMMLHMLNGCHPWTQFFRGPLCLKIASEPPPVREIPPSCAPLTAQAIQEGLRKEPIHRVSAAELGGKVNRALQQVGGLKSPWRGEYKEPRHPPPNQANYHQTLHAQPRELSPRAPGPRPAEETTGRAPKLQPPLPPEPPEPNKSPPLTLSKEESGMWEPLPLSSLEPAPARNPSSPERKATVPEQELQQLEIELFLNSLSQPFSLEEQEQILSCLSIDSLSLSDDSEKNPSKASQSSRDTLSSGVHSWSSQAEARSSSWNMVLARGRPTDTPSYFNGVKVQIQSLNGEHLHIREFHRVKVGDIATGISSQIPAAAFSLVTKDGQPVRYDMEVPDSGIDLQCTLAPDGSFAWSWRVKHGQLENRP

As for `COCc1nc2ccc(C#C[C@@](C)(O)c3nccs3)cc2n1-c1ncnc(N)n1` [Example T1-68, (R)-4-(1-(4-amino-1,3,5-triazin-2-yl)-2-(methoxymethyl)-1H-benzo[d]imidazol-6-yl)-2-(thiazol-2-yl)but-3-yn-2-ol], the half-maximal inhibitory concentration (IC50) – broadly, the point on the concentration scale where inhibition reaches its midpoint – in assay [1] is 553 nM; in assay [2], at least 20000 nM. In addition, the inhibitory constant (Ki) – broadly, a dissociation constant, usually derived from enzyme kinetics or from competition with a known ligand – in assay [3] was 2.7 nM.
For `Cc1cc(C(C)(O)C#Cc2ccc3c(C(=O)N4CCCC4)nn(-c4ccnc(N)n4)c3c2)no1` (centres unmarked) [Example T1-66, (1-(2-aminopyrimidin-4-yl)-6-(3-hydroxy-3-(5-methyl-isoxazol-3-yl)but-1-ynyl)-1H-indazol-3-yl)(pyrrolidin-1-yl) methanone] the same measures were 168 nM, at least 20000 nM and 1.27 nM.
The like results for `CC(C)(O)C#Cc1ccc2ncn(-c3ccnc(N)n3)c2c1` [Example T1-10, 4-(1-(2-aminopyrimidin-4-yl)-1H-benzo[d]imidazol-6-yl)-2-methylbut-3-yn-2-ol] were, in that order, 1200 nM, 2600 nM and 14.3 nM.
For `Cc1nn(-c2ccnc(N)n2)c2cc(C#CC(C)(O)c3ncccn3)ccc12` (centres unmarked) [Example T1-67, 4-(1-(2-aminopyrimidin-4-yl)-3-methyl-1H-indazol-6-yl)-2-(pyrimidin-2-yl)but-3-yn-2-ol] the same measures were 217 nM, 17600 nM and 4 nM.
On to `Nc1nccc(-n2ncc3ccc(C#CC4(O)CCCC4)cc32)n1` [Example T1-5, 1-((1-(2-aminopyrimidin-4-yl)-1H-indazol-6-yl)ethynyl) cyclopentanol], for which the IC50 in assay [2] is 1600 nM.
For `N#Cc1ccc2cnn(-c3ccnc(N)n3)c2c1` [Example T1-3, 1-(2-aminopyrimidin-4-yl)-1H-indazole-6-carbonitrile], the IC50 in assay [2] is at least 20000 nM.
Regarding `Cc1cc(C(C)(O)C#Cc2ccc3c(C(=O)N4CCOCC4)nn(-c4ccnc(N)n4)c3c2)no1` (centres unmarked) [Example T1-65, (1-(2-aminopyrimidin-4-yl)-6-(3-hydroxy-3-(5-methyl-isoxazol-3-yl)but-1-ynyl)-1H-indazol-3-yl)(morpholino) methanone], the concentration for half-maximal inhibition (IC50) in assay [1] is 133 nM; in assay [2], at least 20000 nM. In assay [3], the inhibitory constant (Ki) stood at 2.65 nM.
Regarding `CC1(C(=O)Nc2cnc(N)nc2-n2ncc3ccc(C#CC(C)(O)c4nccs4)cc32)COC1` (centres unmarked) [Example T1-16, N-(2-amino-4-(6-(3-hydroxy-3-(thiazol-2-yl)but-1-ynyl)-1H-indazol-1-yl)pyrimidin-5-yl)-3-methyloxetane-3-carboxamide], the IC50 in assay [4] came to 3400 nM; in assay [1], 582 nM; in assay [5] it was 518 nM. The Ki in assay [3] was found to be 27 nM.
On to `Cc1cc(C(C)(O)C#Cc2ccc3c(C(=O)N(C)C)nn(-c4ccnc(N)n4)c3c2)on1` (centres unmarked) [Example T1-52, 1-(2-aminopyrimidin-4-yl)-6-(3-hydroxy-3-(3-methyl-isoxazol-5-yl)but-1-ynyl)-N,N-dimethyl-1H-indazole-3-carboxamide], for which the half-inhibitory concentration (IC50) in assay [1] was 1300 nM; in assay [2], at least 20000 nM; in assay [5], 89 nM. Further, the inhibition constant (Ki) in assay [3] turned out to be 10 nM.
Regarding `Cc1nn(-c2ccnc(N)n2)c2cc(C#CC(C)(O)c3nccs3)ccc12` (centres unmarked) [Example T1-13, 4-(1-(2-aminopyrimidin-4-yl)-3-methyl-1H-indazol-6-yl)-2-(thiazol-2-yl)but-3-yn-2-ol], the IC50 in assay [4] amounted to 129 nM; in assay [1], 23.1 nM; in assay [5] it was 77 nM. Further, in assay [3], the Ki turned out to be 0.262 nM.
In the case of `CC(O)(C#Cc1ccc2nc(C3CC3)n(-c3ccnc(N)n3)c2c1)c1nccs1` (centres unmarked) [Example T1-14, 4-(1-(2-aminopyrimidin-4-yl)-2-cyclopropyl-1H-benzo[d]imidazol-6-yl)-2-(thiazol-2-yl) but-3-yn-2-ol], the values for the IC50 in assay [4], in assay [1] and in assay [5] were 7600 nM, 879 nM and 3400 nM, respectively. Besides, the Ki in assay [3] is 6.9 nM.
`Cc1cc(C(C)(O)C#Cc2ccc3c(C)nn(-c4ccnc(N)n4)c3c2)on1` (centres unmarked) [Example T1-48, 4-(1-(2-aminopyrimidin-4-yl)-3-methyl-1H-indazol-6-yl)-2-(3-methylisoxazol-5-yl)but-3-yn-2-ol]: the values for the IC50 in assay [1] and in assay [2] were 1500 nM and over 20000 nM, respectively. For the same compound, the Ki in assay [3] is 13 nM.
In the case of `Cc1nn(-c2ccnc(N)n2)c2cc(C#CC(C)(O)c3cncs3)ccc12` (centres unmarked) [Example T1-54, 4-(1-(2-aminopyrimidin-4-yl)-3-methyl-1H-indazol-6-yl)-2-(thiazol-5-yl)but-3-yn-2-ol], the 50% inhibitory concentration (IC50) in assay [1] is 20000 nM; in assay [2], 17000 nM; in assay [5] it was 489 nM. In assay [3], the inhibition constant (Ki) is 105 nM.
For `CN(C)C(=O)c1nn(-c2ccnc(N)n2)c2cc(C#CC(C)(O)c3nccs3)ccc12` (centres unmarked) [Example T1-29, 1-(2-aminopyrimidin-4-yl)-6-(3-hydroxy-3-(thiazol-2-yl)but-1-ynyl)-N,N-dimethyl-1H-indazole-3-carboxamide], the results for the 50% inhibitory concentration (IC50) in assay [4], in assay [1] and in assay [5] were 275 nM, 72.2 nM and 72.7 nM, respectively. In addition, the inhibitory constant (Ki) in assay [3] was 0.9 nM.
